Reference: patent US20110262352A1, “ARYL PIPERAZINE AND THEIR USE AS ALPHA2C ANTAGONISTS” (priority 2008, published 2011)
Where two headings read alike, the source gives them in different places.

Tests used:
[1] = target: T1, human alpha2A receptors (Homo sapiens, UniProt P08913); test: Determination of alpha2A antagonistic activity in vitro (intracellular calcium, FLIPR Calcium 3); assay type: cell-based; settings: CHO cells stably transfected with human alpha2A receptor and Gα16; stimulated with 100 nM adrenaline or 200 nM noradrenaline; 37° C.
T1 construct: host or cells: Chinese hamster ovary (CHO) cells, cotransfected with pCEP-Gα16
T1 sequence (P08913 1-465): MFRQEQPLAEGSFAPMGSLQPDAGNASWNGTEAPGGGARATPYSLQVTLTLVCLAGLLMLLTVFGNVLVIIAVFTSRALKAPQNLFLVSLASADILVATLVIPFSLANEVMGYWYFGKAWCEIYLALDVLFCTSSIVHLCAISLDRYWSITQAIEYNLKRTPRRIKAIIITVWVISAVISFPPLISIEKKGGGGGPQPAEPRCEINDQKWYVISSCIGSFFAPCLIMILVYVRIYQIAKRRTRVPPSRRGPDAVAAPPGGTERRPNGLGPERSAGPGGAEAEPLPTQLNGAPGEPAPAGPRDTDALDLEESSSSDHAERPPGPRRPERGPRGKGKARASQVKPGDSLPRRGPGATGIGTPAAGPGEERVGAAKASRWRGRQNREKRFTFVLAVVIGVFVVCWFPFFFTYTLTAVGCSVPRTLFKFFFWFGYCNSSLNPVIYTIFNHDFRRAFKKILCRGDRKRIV
Procedure: (§1) Experiment 1: Determination of alpha2A and alpha2C Antagonistic Activity In Vitro
(§2) Chinese hamster ovary (CHO) cells stably transfected with human alpha2A or alpha2C receptors (University of Turku, Finland) were cotransfected with the expression vector pCEP-Gα16 (Molecular Devices, CA, USA) were used in this experiment. The cells were maintained at 37° C. in a 5% CO2/95% air atmosphere. The cells were cultured in HAM F-12 medium supplemented with 10% FCS, 25 mM HEPES, 100 IU/ml penicillin, 100 μg/ml streptomycin, 500 μg/ml geneticin and 240 μg/ml hygromycin B. The cells were subcultured twice weekly with 0.25% trypsin and 1 mM EDTA. The subculture ratio was 1:5-1:20. The growth medium was changed every 2 or 3 days. All cell culture reagents were from Gibco. The day before the experiment the cells were plated into black-walled, clear bottom 96-well plates at a density of 30,000-45,000 cells/well.
(§3) The growth medium was removed and the cells were incubated with the test compounds and the FLIPR Calcium 3 Assay reagent (Molecular Devices, CA, USA) for 1 h at 37° C. in dark. The test compounds (concentrations in cells 100 pM-10 μM) were dissolved in Probenecid-Ringer consisting of 150 mM NaCl, 3 mM KCl, 1.2 mM MgCl2, 1 mM CaCl2, 5 mM glucose, 20 mM HEPES and 2.5 mM probenecid (pH 7.4 adjusted with 1.0 M NaOH). The osmolarity was adjusted to 322 milliosmoles with Osmostat® OM-6020 osmometer (DIC Kyoto Daiichi Kagagu Co. Ltd, Japan). […] All experiments were performed at 37° C. The test compounds dissolved in Probenecid-Ringer were applied by FLEX station at 17 s time point. […] In order to determine antagonism, the cells were stimulated either with 100 nM adrenaline or 200 nM noradrenaline and the test compounds were added to the cells at least 5 min before the experiment. Typically, there were four replicates at each concentration and seven different dose levels. For example, if the number of plates from which results were obtained was three, 84 (4*7*3) wells were thus measured to construct dose-response relationship. The samples were excited at 485 nm and emission was detected at 525 nm with a 515 nm cut-off filter. Reading time was 60 s per well and the photomultiplier sensitivity value was set to 15. The minimum fluorescence value subtracted from the maximum value for each well was used in the calculations. SOFTmax PRO version 3.2 software was used for analyzing the results. Fitting of the antagonist dose-response results was performed with the free Hill equation and the IC50 values were fitted with Michaelis-Menten equation in Sigma Plot 8.0.

[2] = target: T2, human alpha2C receptors (Homo sapiens, UniProt P18825); test: Determination of alpha2C antagonistic activity in vitro (intracellular calcium, FLIPR Calcium 3); assay type: cell-based
T2 construct: host or cells: Chinese hamster ovary (CHO) cells, cotransfected with pCEP-Gα16
T2 sequence (P18825 1-462): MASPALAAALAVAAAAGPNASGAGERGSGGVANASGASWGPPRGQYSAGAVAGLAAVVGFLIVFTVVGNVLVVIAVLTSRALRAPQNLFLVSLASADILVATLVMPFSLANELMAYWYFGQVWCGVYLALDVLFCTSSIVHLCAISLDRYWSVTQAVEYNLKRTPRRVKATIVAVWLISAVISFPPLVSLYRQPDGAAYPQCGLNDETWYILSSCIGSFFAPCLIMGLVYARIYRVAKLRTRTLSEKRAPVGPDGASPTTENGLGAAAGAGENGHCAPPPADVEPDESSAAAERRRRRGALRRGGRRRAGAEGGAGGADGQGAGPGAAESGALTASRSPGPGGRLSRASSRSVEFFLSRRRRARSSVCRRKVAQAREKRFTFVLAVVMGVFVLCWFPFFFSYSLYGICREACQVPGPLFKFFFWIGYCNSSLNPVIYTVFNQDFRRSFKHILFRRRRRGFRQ
Procedure: as §1, §2, §3

[3] = CHO cells stably transfected with human alpha2C receptor and Gα16, stimulated with 100 nM adrenaline or 200 nM noradrenaline, 37° C., read-out: IC50/nM Alpha2C

| IC50 [1] [nM] | IC50 [2, 3] [nM] | Compound | IC50 [2] [nM] |
| --- | --- | --- | --- |
| 2180 | 8.2 | COCc1ccccc1N1CCN(C[C@H]2COc3ccccc3O2)CC1 [Example 17, (S)-1-((2,3-Dihydrobenzo[b][1,4]dioxin-2-yl)methy)-4-(2-(methoxymethyl)phenyl)piperazine] |  |
| 41100 | 134 | COCc1ccccc1N1CCN(C[C@@H]2COc3ccccc3O2)CC1 [Example 18, (R)-1-((2,3-Dihydrobenzo[b][1,4]dioxin-2-yl)methyl)-4-(2-(methoxymethyl)phenyl)piperazine] |  |
| 10700 | 30.6 | OCc1c(F)cccc1N1CCN(CC2COc3ccccc3O2)CC1 (stereo not drawn) [Example 23, (2-(4-((2,3-Dihydrobenzo[b][1,4]dioxin-2-yl)methyl)piperazin-1-yl)-6-fluorophenyl)methanol] |  |
| 12700 | 18 | c1coc(-c2ccccc2N2CCN(C[C@H]3COc4ccccc4O3)CC2)c1 [Example 29, (S)-1-((2,3-Dihydrobenzo[b][1,4]dioxin-2-yl)methyl)-4-(2-(furan-2-yl)phenyl)piperazine] |  |
| 3900 | 13.7 | COC(=O)c1ccccc1N1CCCN(CC2COc3ccccc3O2)CC1 (stereo not drawn) [Example 36, Methyl 2-(4-((2,3-dihydrobenzo[b][1,4]dioxin-2-yl)methyl)-1,4-diazepan-1-yl)benzoate] |  |

| Compound | IC50 [1] [nM] | IC50 [2, 3] [nM] | IC50 [2] [nM] |
| --- | --- | --- | --- |
| Cc1ccccc1N1CCN(C[C@H]2COc3ccccc3O2)CC1 [Example 31, (S)-1-((2,3-Dihydrobenzo[b][1,4]dioxin-2-yl)methyl)-4-o-tolylpiperazine] | 16900 |  | 17.6 |
